Measurements from US10207023B2, “Antibacterial calcium-based materials” (NATIONAL CHENG KUNG UNIVERSITY, priority 2012, dated 2019).

Experiments:
[1] = system: staphylococcus aureus (SA); experiment: Disk diffusion assay (antibacterial zone); type: cell-based; conditions: for antibacterial behavior: commercially pure lithium compounds, dry- or wet-molded 3 mm high, 6 mm dia. cylinders; for anti-bacterial zones: wet-molded pure Li compound (0.6 M (NH4)2HPO4 setting solution, 1.4 MPa), 6 mm dia. cylinder
Procedure: (§1) To prepare a TSB medium, 6 g Tryptone (Neogen, USA), 2 g Soytone (Soytone BD, USA) and 2 g NaCl (J.T. Baker, USA) were placed into a beaker filled with 400 ml of double distilled water and mixed with a stir bar. After total dissolution, the pH of the solution was adjusted to 7.3 and the solution was autoclaved (121° C., 1.2 kg/cm^2) for 30 min.
as §1, with “TSA” for “TSB”, “USA),” for “USA) and”, “Baker, USA) and 6 g Agar (Neogen,” for “Baker,”, “min. After being sterilized, the TSA medium was poured into a petri dish and allowed hardened. The TSA medium was then placed into an incubator at 30° C.” for “min.”
1 ml staphylococcus aureus (SA) containing TSB medium was transferred into a 15 ml centrifuge tube, wherein 10 ml phosphate buffered saline (PBS) was added and mixed gently. The mixture was centrifuged (KUBOTA 5922, Japan) at 3000 rpm for 10 minutes. The supernatant was removed and a SA pellet remained. 1 ml PBS was then added to suspend the pellet. 20 μl of the SA suspension and 180 μl PBS were transferred into each well of a 96 well plate. The absorbance was assayed using an ELISA reader (Sunrise, Tecan, Switzerland) at 600 nm to determine the bacterial concentration (cfu/ml) (200 μl of PBS was used as a negative control). Once determined, an appropriate volume of SA containing medium was transferred into a 1 micro centrifuge tube, wherein TSB was added to adjust bacterial concentration to 3.5×10^6 (cfu/ml). The tube was shaked for 15 seconds to allow thorough mixing. 100 μl of the SA containing medium was removed and dropped evenly across the agar plate. Once the broth was distributed evenly on agar plate and became almost dry, samples to be tested were placed on top of the agar and the petri dish was covered with a parafilm. The dish was placed in an incubator (LM-570R, Yih Der, Taiwan) at 37° C. for 24 hours. Bacteria colony formation was then observed and colony diameters measured.
After being loaded, the samples were placed on a table for 1 hour to become dry. Four samples were then placed into a 20 ml glass vial, wherein 8 ml Hanks' solution was added with a solid/liquid ratio of 0.1 g/ml. The glass vial was put into a water bath at 37° C. for 1, 2, 3, 5, and 7 days. The Hanks' solution was changed daily. Once having been soaked for desired periods of time, the samples were placed into a 50° C. oven for 24 hours, then stored in a zip lock bag.

[2] = system: S. aureus; experiment: Antimicrobial activity measurement (CFU count in TSB); type: cell-based
Procedure: Appropriate amount of UV-sterilized sample (either granule or cement) to be tested was put in a 12-well plate, wherein was added 1 ml Tryptone Soya Broth (TSB) with 10^6 live S. aureusbacteria in each well (concentration: 10^6 colony-forming units (CFU) per ml). S. aureusbacteria were cultured with the sample anaerobically at 37° C. One cultured without sample was considered as a positive control in each study group. The viability of the bacterial suspensions incubated with different samples was assessed using Tryptone Soya Agar (TSA) solid agar plates. After cultivation for 24 h, broth of each well was sequentially diluted and plated. The growth of bacteria was evaluated after cultivation on agar plates at 37° C. for 24 h. Then colony-forming units (CFU) were counted to calculate concentration using the equation,
[formula] and the antimicrobial activity is obtained by the following equation: Antimicrobial activity={[(Conc. of control group)−(conc. of experiment)]/(Conc. of control group)}×100%
Appropriate amounts of UV-sterilized Li3PO4 or Li2CO3 salt were each mixed with 1 ml TSB and tested for their antimicrobial activity values using the aforementioned method.
Appropriate amounts of “65/35” powder were mixed with appropriate amounts of Li3PO4 or Li2CO3 salt to form TTCP/DCPA/CSH/Li salt mixed powder with different Li salt ratios. The mixed powder was mixed with 0.6 M (NH4)2HPO4 solution to form a cement paste. Prior to being fully hardened, the paste was placed in a stainless steel mold under a pressure of 450 Kgf to squeeze a portion of the liquid out of the paste. After being hardened and removed from the mold, the hardened block was crushed and sieved into granules with a particle size range of about 0.4-1.2 mm. 0.2 g UV-sterilized thus-obtained granular sample was mixed with 1 ml TSB and tested for its antimicrobial activity using the aforementioned method.

Row | SMILES | antibacterial behavior [1] | 24 h antimicrobial activity values ([2]; 0.06-0.12 g Li3PO4 salt in 1 ml TSB) | Antimicrobial activity (24 h) ([2]; Li salt amount/TSB 0.06 g/ml) [%] | Antimicrobial activity (24 h) ([2]; Li salt amount/TSB 0.08 g/ml) [%] | Antimicrobial activity (24 h) ([2]; Li salt amount/TSB 0.10 g/ml) [%] | Antimicrobial activity (24 h) ([2]; Li salt amount/TSB 0.12 g/ml) [%] | Antimicrobial activity (24 h) ([2]; Li salt amount/TSB 0.14 g/ml) [%] | anti-bacterial zones [1] [mm] | 24 h antimicrobial activity value ([2]; all Li2CO3 salt samples (0.06-0.14 g/ml TSB)) [%]
1 | O=P([O-])([O-])[O-].[Li+].[Li+].[Li+] [Li3PO4, Lithium phosphate] | high antibacterial behavior | 97.4-98.9% | 98.9 | 98.9 | 97.4 | 98.8 | 99.8 |  | 
2 | O=C([O-])[O-].[Li+].[Li+] [Li2CO3, Lithium carbonate] | high antibacterial behavior |  | 100 | 100 | 100 | 100 | 100 | 18 | 100
3 | [Li+].[Li+].[O-2] [Li2O, Lithium oxide] | high antibacterial behavior |  |  |  |  |  |  |  | 
4 | [F-].[Li+] [LiF, Lithium fluoride] | high antibacterial behavior |  |  |  |  |  |  |  | 
5 | O=S(=O)([O-])[O-].[Li+].[Li+] [Li2SO4, Lithium sulfate] | high antibacterial behavior |  |  |  |  |  |  | 22 | 
